The test addresses Myc/Max binding to DNA (Homo sapiens, UniProt P01106). Put plainly: Electrophoretic mobility shift assay (EMSA) of Myc/Max binding to DNA. The class given is biochemical. Conditions: EMSA; for remaining activity at 100 µM / Bound DNA (%) (100uM): 100 uM test compound; for remaining activity at 100 µM: read-out: Bound DNA (%) (100uM); for remaining activity at 50 µM: 50 uM test compound, read-out: Bound DNA (%) (50uM). On the procedure:
We also tested our best hit compound Min9 (NUCC-0176234) and newly synthesized analogs for effects of these compounds on Myc/Max binding to DNA in electrophoretic mobility shift assays (EMSAs). (See FIG. 5a and FIG. 5b). We expected the active compounds to impair Myc/Max binding to DNA. Several strucutural analogs of Min9 were tested over multiple doses for inhibiting Myc-DNA binding and we observed a dose-dependent inhibition. (See FIG. 5c).
Additional compounds were synthesized and tested in the EMSA assay at concentrations of 200 μM, 100 μM, and 50 μM.

Chain of Myc/Max binding to DNA (P01106 whole entry): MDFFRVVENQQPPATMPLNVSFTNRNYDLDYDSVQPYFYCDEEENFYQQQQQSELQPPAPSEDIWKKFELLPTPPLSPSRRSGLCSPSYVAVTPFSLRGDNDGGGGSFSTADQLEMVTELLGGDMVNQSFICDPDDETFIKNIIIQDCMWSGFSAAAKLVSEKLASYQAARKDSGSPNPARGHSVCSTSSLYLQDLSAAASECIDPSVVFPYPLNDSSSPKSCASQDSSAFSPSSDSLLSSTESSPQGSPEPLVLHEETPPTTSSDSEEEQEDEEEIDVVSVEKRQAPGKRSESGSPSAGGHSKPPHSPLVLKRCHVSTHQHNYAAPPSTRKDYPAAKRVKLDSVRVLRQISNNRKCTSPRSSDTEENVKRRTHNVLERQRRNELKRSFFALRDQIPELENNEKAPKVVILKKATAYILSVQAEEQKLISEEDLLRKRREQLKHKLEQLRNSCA

For `N#Cc1cccc(-c2c(-c3ccc(OCc4ccc(Cl)cc4)cc3O)n[nH]c2C(F)(F)F)c1` [compound 0198398], the remaining activity at 100 µM was 3%. For the compound `Cn1nc(C(F)(F)F)c(-c2cccc(C#N)c2)c1-c1ccc(OCc2ccc(Cl)cc2)cc1O` [compound 0198399], the remaining activity at 100 µM was 2%. `Cn1nc(-c2ccc(OCc3ccc(Cl)cc3)cc2O)c(-c2cccc(C#N)c2)c1C(F)(F)F` [compound 0198400]: the remaining activity at 100 µM worked out at 48%. Consider `NC(=O)c1cccc(-c2c(-c3ccc(OCc4ccc(Cl)cc4)cc3O)n[nH]c2C(F)(F)F)c1` [compound 0198401], for which the remaining activity at 100 µM stood at 77%. Still for that read-out and setting: the result for `Cn1nc(C(F)(F)F)c(-c2cccc(C(N)=O)c2)c1-c1ccc(OCc2ccc(Cl)cc2)cc1O` [compound 0198402] reads 57%; that for `C/C(=N\N)c1cccc(-c2c(-c3ccc(OCc4ccc(Cl)cc4)cc3O)n[nH]c2C(F)(F)F)c1` [compound 0198403], 44%; that for `CN/N=C(\C)c1cccc(-c2c(C(F)(F)F)nn(C)c2-c2ccc(OCc3ccc(Cl)cc3)cc2O)c1` [compound 0198404], 67%. For `CN/N=C(\C)c1cccc(-c2c(-c3ccc(OCc4ccc(Cl)cc4)cc3O)nn(C)c2C(F)(F)F)c1` [compound 0198405], the remaining activity at 100 µM is 89%. `CCc1ccc(Oc2c(-c3ccc(O)cc3O)n[nH]c2C(F)(F)F)cc1` [compound 0198406]: the remaining activity at 100 µM was determined as 0%.

Consider `Cn1nc(C(F)(F)F)c(Br)c1-c1ccc(OCc2ccc(Cl)cc2)cc1O` [compound 0198407], for which the remaining activity at 100 µM was 13%. Turning to `Cn1nc(-c2ccc(OCc3ccc(Cl)cc3)cc2O)c(Br)c1C(F)(F)F` [compound 0198408], the remaining activity at 100 µM was 136%. As to `Cn1nc(C(F)(F)F)c(-c2ccc(C(N)=O)cc2)c1-c1ccc(OCc2ccc(Cl)cc2)cc1O` [compound 0198409], the remaining activity at 100 µM is 69%. As to `Cn1nc(C(F)(F)F)c(-c2ccccc2OC(F)(F)F)c1-c1ccc(OCc2ccc(Cl)cc2)cc1O` [compound 0198410], the remaining activity at 100 µM was 44%. Regarding `CCc1ccc(Oc2c(-c3ccc(O)cc3O)nn(C)c2C(F)(F)F)cc1` [compound 0198411], the “Bound DNA (%) (100uM)” value came out at 30%. Turning to `Cn1nc(C(F)(F)F)cc1-c1ccc(OCc2ccc(Cl)cc2)cc1O` [compound 0198412], the remaining activity at 100 µM amounted to 91%. Regarding `CCOC(=O)c1[nH]nc(-c2ccc(OCc3ccc(Cl)cc3)cc2O)c1-c1ccc(C#N)cc1` [compound 0200489], the remaining activity at 50 µM is 99% and the remaining activity at 100 µM stood at 100%. For the compound `Oc1cc(OCc2ccc(Cl)cc2)ccc1-c1n[nH]c(C(F)(F)F)c1Cc1ccccc1Cl` [compound 0200490], the remaining activity at 50 µM was determined as 97% and the remaining activity at 100 µM was found to be 99%. With `Oc1cc(Nc2ccc(Cl)cc2)ccc1-c1cc(C(F)(F)F)[nH]n1` [compound 0200491], the remaining activity at 50 µM stood at 73% and the “Bound DNA (%) (100uM)” value came out at 0%.

In the case of `Cn1nc(-c2ccc(Nc3ccc(Cl)cc3)cc2O)cc1C(F)(F)F` [compound 0200492], the remaining activity at 50 µM is 92% and the remaining activity at 100 µM worked out at 24%.

Turning to `Oc1cc(NCc2ccc(Cl)cc2)ccc1-c1cc(C(F)(F)F)[nH]n1` [compound 0200493], the remaining activity at 50 µM was 92% and the remaining activity at 100 µM came out at 42%.

For the compound `Cn1nc(-c2ccc(NCc3ccc(Cl)cc3)cc2O)cc1C(F)(F)F` [compound 0200494], the remaining activity at 50 µM came to 99% and the remaining activity at 100 µM was 89%. With `Oc1ccc(-c2n[nH]c(C(F)(F)F)c2-c2cc(C(F)(F)F)cc(C(F)(F)F)c2)c(O)c1` [compound 0200495], the remaining activity at 50 µM came to 86% and the remaining activity at 100 µM is 8%. The like results for `COc1ccc(-c2c(-c3ccc(O)cc3O)n[nH]c2C(F)(F)F)cc1OC` [compound 0200496] were, in that order, 98% and 81%.

For `Nc1ccc(-c2cc(C(F)(F)F)[nH]n2)c(O)c1` [compound 0200497], the remaining activity at 50 µM worked out at 107% and the remaining activity at 100 µM is 109%. Consider `Cn1nc(-c2ccc(N)cc2O)cc1C(F)(F)F` [compound 0200498], for which the remaining activity at 50 µM was determined as 100% and the remaining activity at 100 µM is 101%. As for `Oc1cc(OCc2ccc(Cl)cc2)ccc1-c1cc(C(F)(F)F)n(Cc2ccccc2)n1` [compound 0200499], the remaining activity at 50 µM was found to be 109% and the remaining activity at 100 µM turned out to be 100%. The like results for `Oc1cc(OCc2ccc(Cl)cc2)ccc1-c1cc(C(F)(F)F)nc(-c2cccc(C(F)(F)F)c2)n1` [compound 0200500] were, in that order, 100% and 109%.

`Oc1cc(OCc2ccc(Cl)cc2)ccc1-c1cc(C(F)(F)F)nc(-c2cc(C(F)(F)F)cc(C(F)(F)F)c2)n1` [compound 0200501]: the remaining activity at 50 µM stood at 91% and the remaining activity at 100 µM amounted to 79%.

`Nc1nc(-c2ccc(OCc3ccc(Cl)cc3)cc2O)cc(C(F)(F)F)n1` [compound 0200502]: the remaining activity at 50 µM turned out to be 64% and the remaining activity at 100 µM was found to be 94%. Consider `Oc1cc(OCc2ccc(Cl)cc2)ccc1-c1cc(C(F)(F)F)nc(-c2ccc(F)cc2)n1` [compound 0200503], for which the remaining activity at 50 µM came to 89% and the remaining activity at 100 µM is 91%.

Take `N#Cc1cccc(-c2c(-c3ccc(OCc4ccc(Cl)cc4)cc3O)n[nH]c2C(N)=O)c1` [compound 0200557]: the remaining activity at 50 µM was determined as 46% and the remaining activity at 100 µM is 53%. For `Cn1nc(-c2ccc(OCc3ccc(Cl)cc3)cc2O)c(-c2cccc(C#N)c2)c1C(N)=O` [compound 0200558], the remaining activity at 50 µM came out at 20% and the remaining activity at 100 µM was found to be 9%.

In the case of `Oc1cc(Nc2ccc(F)c(F)c2)ccc1-c1cc(C(F)(F)F)[nH]n1` [compound 0200559], the remaining activity at 50 µM came out at 76% and the remaining activity at 100 µM is 39%.

Regarding `Cn1nc(-c2ccc(Nc3ccc(F)c(F)c3)cc2O)cc1C(F)(F)F` [compound 0200560], the remaining activity at 50 µM turned out to be 91% and the remaining activity at 100 µM worked out at 56%. `Oc1cc(Nc2ccc3c(c2)OCO3)ccc1-c1cc(C(F)(F)F)[nH]n1` [compound 0200561]: the remaining activity at 50 µM was 91% and the remaining activity at 100 µM worked out at 59%. With `Cn1nc(-c2ccc(Nc3ccc4c(c3)OCO4)cc2O)cc1C(F)(F)F` [compound 0200562], the remaining activity at 50 µM is 101% and the remaining activity at 100 µM was determined as 77%. As for `NC(=O)c1ccc(Nc2ccc(-c3cc(C(F)(F)F)[nH]n3)c(O)c2)cc1` [compound 0200563], the remaining activity at 50 µM was 101% and the remaining activity at 100 µM came out at 92%.

For `Cn1nc(-c2ccc(Nc3ccc(C(N)=O)cc3)cc2O)cc1C(F)(F)F` [compound 0200564], the remaining activity at 50 µM came out at 103% and the remaining activity at 100 µM stood at 93%. The like results for `Oc1cc(Nc2ccccn2)ccc1-c1cc(C(F)(F)F)[nH]n1` [compound 0200565] were, in that order, 112% and 112%. Consider `Cn1nc(-c2ccc(Nc3ccccn3)cc2O)cc1C(F)(F)F` [compound 0200566], for which the remaining activity at 50 µM is 109% and the remaining activity at 100 µM was 118%.

The record behind these values is US20170253581A1, “SUBSTITUTED HETEROCYCLES AS c-MYC TARGETING AGENTS” (Northwestern University, priority 2016, published 2017).
